Reference: US11071731B2, “Allosteric modulators of the mu opioid receptor” (Chiromics, LLC, priority 2017, dated 2021)

Legend:
mu opioid receptor (MOR) [1] = target: T1, mu opioid receptor (MOR) (Homo sapiens, UniProt P35372); test: Hit Hunter cAMP signaling assay (adenylyl cyclase inhibition), PAM mode with EC20 endomorphin-1; type: cell-based; conditions: read-out: cAMP EC50; adenylyl cyclase inhibition
mu opioid receptor (MOR) [2] = target: T1, mu opioid receptor (MOR); test: PathHunter β-arrestin recruitment assay, PAM mode with EC20 endomorphin-1; type: cell-based; conditions: for inhibition of β-arrestin recruitment at a static concentration of 5 μM: printed in β-arr. EC50 column; for β-arr Max. Resp.: maximal response for β-arrestin recruitment; for EC50: β-arrestin recruitment, read-out: β-arr. EC50
Description: The effects of MOR PAMs and MOR SAMs on receptor activity were assayed using the PathHunter enzyme complementation assay technology (DiscoveRx, CA). A description of the technology employed is as follows.
Beta-Arrestin Pathway: The PathHunter β-arrestin assay monitors the activation of a GPCR in a homogenous, non-imaging assay format using a technology developed by DiscoveRx called Enzyme Fragment Complementation (EFC) with beta-galactosidase (β-Gal) as the functional reporter. […] EA is fused to β-Arrestin and ED is fused to the GPCR of interest. When the GPCR is activated and β-arrestin is recruited to the receptor, ED and EA complementation occurs, restoring β-gal activity, which is measured using chemiluminescent PathHunter Detection Reagents.
In this manner an EC50 for each test compound, and percent maximal response for each test compound, were determined for both the β-arrestin and cAMP pathways. Though the pharmacological effects of a given signal bias can be hypothesized (Raehal et al. (2011) Pharmacol. Rev. 63:1001-1019), it is not possible to know with certainty which bias ratio will be most advantageous in a clinical setting. […] Kenakin 2015a, supra. The information associated with the compounds detailed herein is the first large data set available for the prediction of ligand bias for an MOR PAM.

T1 sequence (P35372 whole entry): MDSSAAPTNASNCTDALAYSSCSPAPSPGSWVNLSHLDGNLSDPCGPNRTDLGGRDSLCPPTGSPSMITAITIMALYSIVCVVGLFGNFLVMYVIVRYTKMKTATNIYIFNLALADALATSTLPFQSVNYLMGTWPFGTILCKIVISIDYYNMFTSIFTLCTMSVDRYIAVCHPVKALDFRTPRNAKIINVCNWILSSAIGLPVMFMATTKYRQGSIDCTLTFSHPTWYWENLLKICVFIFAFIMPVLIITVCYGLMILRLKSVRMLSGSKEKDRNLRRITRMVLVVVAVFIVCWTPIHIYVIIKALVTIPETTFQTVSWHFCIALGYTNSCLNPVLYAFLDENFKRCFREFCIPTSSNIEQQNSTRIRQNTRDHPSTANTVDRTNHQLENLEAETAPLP

Structure (SMILES): Fc1cnc(Cl)nc1N1CCCC(F)C1c1cccc(C(F)(F)F)c1 (single isomer, unassigned) [compound 208]
- EC50 (mu opioid receptor (MOR) [1]): 700 to 2100 nM

Structure (SMILES): Fc1cnc(Cl)nc1N1CCCC(F)C1c1cccc(C(F)(F)F)c1 (single isomer, unassigned) [compound 209]
- EC50 (mu opioid receptor (MOR) [1]): 700 to 2100 nM

Structure (SMILES): O=S(=O)(c1ccccc1)N1CCCCC1c1cccc(C(F)(F)F)c1 (stereo not shown) [Compound 19]
- inhibition of β-arrestin recruitment at a static concentration of 5 μM (mu opioid receptor (MOR) [2]): G (G represents < 50% inhibition of β-arrestin recruitment at a static concentration of 5 μM, for compounds that were not tested for adenylyl cyclase inhibition)

Structure (SMILES): O=S(=O)(c1ccc2ccccc2c1)N1CCCCC1c1cccc(C(F)(F)F)c1 (stereo not shown) [Compound 20]
- inhibition of β-arrestin recruitment at a static concentration of 5 μM (mu opioid receptor (MOR) [2]): G (G represents < 50% inhibition of β-arrestin recruitment at a static concentration of 5 μM, for compounds that were not tested for adenylyl cyclase inhibition)

Structure (SMILES): [2H]C1(c2ccc(F)c(Br)c2)C(F)CCCN1S(=O)(=O)c1ccccc1 (stereo not shown) [Compound 30]
- inhibition of β-arrestin recruitment at a static concentration of 5 μM (mu opioid receptor (MOR) [2]): G (G represents < 50% inhibition of β-arrestin recruitment at a static concentration of 5 μM, for compounds that were not tested for adenylyl cyclase inhibition)

Structure (SMILES): [2H]C1(c2ccc(F)c(Br)c2)C(F)CCCN1S(=O)(=O)c1ccc2ccccc2c1 (stereo not shown) [Compound 31]
- inhibition of β-arrestin recruitment at a static concentration of 5 μM (mu opioid receptor (MOR) [2]): G (G represents < 50% inhibition of β-arrestin recruitment at a static concentration of 5 μM, for compounds that were not tested for adenylyl cyclase inhibition)

Structure (SMILES): [2H]C1(c2ccc(F)c(Br)c2)C(F)CCCN1S(=O)(=O)Cc1ccc(Cl)c(Cl)c1 (stereo not shown) [Compound 34]
- inhibition of β-arrestin recruitment at a static concentration of 5 μM (mu opioid receptor (MOR) [2]): G (G represents < 50% inhibition of β-arrestin recruitment at a static concentration of 5 μM, for compounds that were not tested for adenylyl cyclase inhibition)

Structure (SMILES): [2H]C1(c2ccc(F)c(Br)c2)C(F)CCCN1S(=O)(=O)Cc1ccccc1 (stereo not shown) [Compound 35]
- inhibition of β-arrestin recruitment at a static concentration of 5 μM (mu opioid receptor (MOR) [2]): G (G represents < 50% inhibition of β-arrestin recruitment at a static concentration of 5 μM, for compounds that were not tested for adenylyl cyclase inhibition)

Structure (SMILES): [2H]C1(c2ccc(F)c(Br)c2)C(F)CCCN1S(=O)(=O)Cc1ccccc1Cl (stereo not shown) [Compound 36]
- inhibition of β-arrestin recruitment at a static concentration of 5 μM (mu opioid receptor (MOR) [2]): G (G represents < 50% inhibition of β-arrestin recruitment at a static concentration of 5 μM, for compounds that were not tested for adenylyl cyclase inhibition)

Structure (SMILES): [2H]C1(c2ccc(F)c(Br)c2)C(F)CCCN1S(=O)(=O)c1ccc(OC)cc1 (stereo not shown) [Compound 39]
- inhibition of β-arrestin recruitment at a static concentration of 5 μM (mu opioid receptor (MOR) [2]): G (G represents < 50% inhibition of β-arrestin recruitment at a static concentration of 5 μM, for compounds that were not tested for adenylyl cyclase inhibition)

Structure (SMILES): COc1ccc(C2N(S(=O)(=O)c3ccc(Cl)cc3)CCC2(F)F)cc1Br (stereo not shown) [Compound 113]
- β-arr Max. Resp. (mu opioid receptor (MOR) [2]): F (F represents a maximal response of > 60%)
- EC50 (mu opioid receptor (MOR) [2]): > 2100 nM

Structure (SMILES): COc1ccc(C2C(F)CCN2S(=O)(=O)c2ccc(Cl)cc2)cc1Br (stereo not shown) [Compound 115]
- β-arr Max. Resp. (mu opioid receptor (MOR) [2]): E (E represents a maximal response of 40-60%)
- EC50 (mu opioid receptor (MOR) [2]): > 2100 nM

Structure (SMILES): COc1ccc(C2CCN2S(=O)(=O)c2ccc(Cl)cc2)cc1Br (stereo not shown) [compound 40]
- β-arr Max. Resp. (mu opioid receptor (MOR) [2]): D (D represents a maximal response of < 40%)
- EC50 (mu opioid receptor (MOR) [2]): > 2100 nM

Structure (SMILES): COc1ccc(C2CCCN2S(=O)(=O)c2ccc(Cl)cc2)cc1Br (stereo not shown) [compound 41]
- β-arr Max. Resp. (mu opioid receptor (MOR) [2]): F (F represents a maximal response of > 60%)
- EC50 (mu opioid receptor (MOR) [2]): > 2100 nM

Structure (SMILES): O=S(=O)(c1ccc(Cl)cc1)N1CCCCC1c1ccccn1 (stereo not shown) [compound 45]
- inhibition of β-arrestin recruitment at a static concentration of 5 μM (mu opioid receptor (MOR) [2]): G (G represents < 50% inhibition of β-arrestin recruitment at a static concentration of 5 μM, for compounds that were not tested for adenylyl cyclase inhibition)

Structure (SMILES): Cc1cccc(C2CCCCN2S(=O)(=O)c2ccc(Cl)cc2)n1 (stereo not shown) [compound 46]
- inhibition of β-arrestin recruitment at a static concentration of 5 μM (mu opioid receptor (MOR) [2]): G (G represents < 50% inhibition of β-arrestin recruitment at a static concentration of 5 μM, for compounds that were not tested for adenylyl cyclase inhibition)

Structure (SMILES): N#Cc1cccc(C2CCCCN2S(=O)(=O)c2ccc(Cl)cc2)n1 (stereo not shown) [compound 47]
- inhibition of β-arrestin recruitment at a static concentration of 5 μM (mu opioid receptor (MOR) [2]): G (G represents < 50% inhibition of β-arrestin recruitment at a static concentration of 5 μM, for compounds that were not tested for adenylyl cyclase inhibition)

Structure (SMILES): FC(F)(F)c1cccc(C2CCCCN2Cc2ccc(Cl)cc2)c1 (stereo not shown) [compound 140]
- inhibition of β-arrestin recruitment at a static concentration of 5 μM (mu opioid receptor (MOR) [2]): G (G represents < 50% inhibition of β-arrestin recruitment at a static concentration of 5 μM, for compounds that were not tested for adenylyl cyclase inhibition)
